The values that follow come from patent US20230310481A1 (priority 2020, published 2023).

For orientation: CC50 means the concentration giving 50% cytotoxicity. A lower CC50 goes with harm at low concentration. What is called EC50 is the concentration needed to bring the measured effect to its halfway point.

Type in all cases: cell-based
Series [1] in a line: Viability evaluation (MTS/PMS) of replicon RNA-transfected Huh7 cells, Example 2. The conditions noted are these: human, highest tested concentration 50 µM. The source says:
Obtained values are expressed as percent inhibition of untreated RNA-transfected control condition.
A general note: In antiviral work, replicon cells carry a viral genome segment that copies itself.

Series [2] relates to HEV Genotype 3 replicon Kernow-C1 p6/luc. As to the kind of experiment: Antiviral activity against HEV Genotype 3 replicon Kernow-C1 p6/luc in Huh7 cells (Gaussia luciferase). The conditions noted are these: Huh-7, 96 h, read-out: relative EC50.
Series [3] concerns rat HEV replicon LAB350/luc. As to the kind of experiment: Antiviral activity against rat HEV replicon LAB350/luc in Huh7 cells (Gaussia luciferase). The conditions noted are these: Huh-7, 72 h, 3 days, 50% reduction in Luc signal, two experiments.

In series [1], `CCOc1nc(N)nc2c1ncn2[C@@H]1O[C@](F)(COP(=O)(N[C@@H](C)C(=O)OC2CCCCC2)Oc2ccccc2)[C@@H](O)[C@@]1(C)O` (stereo partly shown) [Compound 2] yielded a CC50 of more than 50 µM.
With `CCOc1nc(N)nc2c1ncn2[C@@H]1O[C@](F)(COP(=O)(OCOC(=O)OC(C)C)OCOC(=O)OC(C)C)[C@@H](O)[C@@]1(C)F` [Compound 3], the cytotoxic concentration (CC50) in series [1] was more than 50 µM.
Consider `CCOc1nc(N)nc2c1ncn2[C@@H]1O[C@]2(F)CO[P@@](=O)(NCC(=O)OC(C)C)O[C@H]2[C@@]1(C)F` [Compound 5], for which the values for the EC50 in series [2] and in series [3] were 0.022 µM and 0.046 µM, respectively. This molecule also registered a CC50 in series [1] of more than 50 µM.
`CCOc1nc(N)nc2c1ncn2[C@@H]1O[C@](F)(COP(=O)(OCOC(=O)OC(C)C)OCOC(=O)OC(C)C)[C@@H](O)[C@@]1(C)O` [Compound 6] came in with a CC50 in series [1] of more than 50 µM.
On the same count and under the same terms, to `CC(C)OC(=O)[C@H](C)N[P@](=O)(OC[C@@]1(F)O[C@@H](n2ccc(=O)[nH]c2=O)[C@](C)(O)[C@@H]1O)Oc1ccccc1` [Compound 7] belongs more than 50 µM; to `CCOc1nc(N)nc2c1ncn2[C@@H]1O[C@]2(F)CO[P@@](=O)(N[C@H](C)C(=O)OC(C)C)O[C@H]2[C@@]1(C)F` [Compound 8], more than 50 µM; to `CC(C)OC(=O)OCOP(=O)(OCOC(=O)OC(C)C)OC[C@@]1(F)O[C@@H](n2ccc(=O)[nH]c2=O)[C@](C)(O)[C@@H]1O` [Compound 9], more than 50 µM.
On to `CC(C)OC(=O)OCOP(=O)(OCOC(=O)OC(C)C)OC[C@@]1(F)O[C@@H](n2ccc(=O)[nH]c2=O)[C@](C)(F)[C@@H]1O` [Compound 11], for which, in series [1], the CC50 was more than 50 µM.
